Reference: patent publication US9511053B2, “Nitric oxide scavengers” (Baxter International Inc., priority 2004, dated 2016)

Legend:
[1] = Solubility in phosphate buffer; type: physicochemical
Procedure: Synthesis of 1,3-dihydroxy-2-(2-thienyl)-4,4,5,5,-tetramethylimidazolidine (compound 4 where R is compound 4c) was conducted as shown on FIG. 1. Anhydro adduct (compound 3 where R is compound 4c) was synthesized from treatment of 2,3-bis-(hydroxyamino)-2,3-dimetylbutansulfate (compound 1 where R is compound 4c) and 2-thiophenecarboxaldehyde (compound 2 where R is compound 4c) in water and methanol where compound 3 was a stable white solid insoluble in water. Compound 3 was oxidized by lead oxide in chloroform to form blue crystals (compound 4 where R is 4c). […] The nitronyl nitroxide monoradicals (compound 4 where R is compound 4a or 4b) have been tested for nitric oxide scavenge activity as described below in greater detail.

[2] = Stability of the nitronyl nitroxide monoradical on isolation; type: physicochemical; details: after oxidation with manganese dioxide in ether and column chromatography
Procedure: Synthesis of 1,3-Dihydroxy-2-(2,4-dihydroxyphenyl)-4,4,5,5,-tetramethylimidazolidine (compound 4 where R is compound 4a) was conducted as shown in FIG. 1. Anhydro adduct compound 3 where R is compound 4a was synthesized from treatment of 2,3-bis-(hydroxyamino)-2,3-dimetylbutansulfate (compound 1 where R is compound 4a) and 2,4-dihydroxybenzaldehyde (compound 2 where R is compound 4a) in a mixture of water and methanol. The nitronyl nitroxide monoradical (compound 4 where R is compound 4a) was obtained after oxidation of compound 3 (where R is compound 4a) with manganese dioxide in ether. Compound 4 was very unstable where only 2.5 mg of compound 4 was obtained after column chromatography.

[3] = NO scavenger assessment: direct measurement of nitric oxide with NO-selective microelectrode; type: biochemical; details: anaerobic, room temperature, phosphate buffer 50 mM pH 7.4
Procedure: The nitric oxide (NO) scavenging activity of various compounds was determined by the direct measurement of nitric oxide. Using a NO-selective microelectrode (World Precision Instruments, ISO-NO Mark II) the nitric oxide concentration was monitored upon the addition of the test compound. The reaction rate constant was calculated for each compound. Test compounds were added in molar excess, and therefore pseudo first-order reaction kinetics were observed. The rate constant (ln ks) for each compound was calculated. Reactions were performed under anaerobic conditions at room temperature, in phosphate buffer (50 mM, pH 7.4).

[4] = test system: anesthetized rats treated with LPS to induce hypotension; test: Hydroxocobalamin animal study: MAP and HR of anesthetized rats treated with LPS to induce hypotension; type: in vivo, Sprague-Dawley rats
Procedure: Applicants have conducted a study to assess the effect of hydroxocobalamin on the mean arterial pressure (MAP) and heart rate (HR) of anesthetized rats that had been treated with LPS to induce hypotension as described in greater detail below.
Three male Sprague-Dawley rats were acutely instrumented with femoral arterial and venous catheters. Rats were initially anesthetized using a 60 mg/kg i.p. dose of Nembutal (sodium pentobarbital.) Each rat was then instrumented with one arterial catheter for blood pressure measurement, and two venous catheters for test article administration, and infusion of Nembutal (0.42 mL/kg/hr) for maintenance of surgical anesthesia. After placement of the catheters, rats were moved to plexiglass boxes to begin hemodynamic measurements. Baseline data were collected for 30 minutes prior to experimental manipulation in order to verify that all rats were properly anesthetized, and that baseline MAP and HR were within acceptable baseline ranges. Following baseline data collection, each rat received a 5 mg/kg intravenous dose of LPS at a rate of 1 mL/min. After achieving a sustained hypotension at approximately 60 minutes after the LPS infusion, one rat received a 6 mL/kg intravenous dose of hydroxocobalamin (14.5 mM in PBS) over a period of one hour. The remaining two rats each received a 4.57 mL/kg intravenous dose of saline over a period of one hour. MAP and HR measurements continued for 2 hours after hydroxocobalamin or saline infusion. Following LPS administration, all three rats received a continuous intravenous administration of Lactated Ringer's solution in order to prevent dehydration (2.4 mL/kg/hr). Due to a limited amount of hydroxocobalamin, it was only possible to dose one animal with this compound.

Compound: CC1(C)N(O)C(c2ccc(O)cc2O)N(O)C1(C)C [4a, 1,3-Dihydroxy-2-(2,4-dihydroxyphenyl)-4,4,5,5,-tetramethylimidazolidine]
- solubility in phosphate buffer [1]: soluble in phosphate buffer
- stability [2]: very unstable

Compound: CC1(C)N([O])C(c2ccc(C(=O)O)cc2)=[N+]([O-])C1(C)C [Carboxy-PTIO]
- Rate of NO Scavenging, ln ks ([3]; Molar ratio scavenger to NO 28:1): 3.8
- Rate of NO Scavenging, ln ks ([3]; Molar ratio scavenger to NO 56:1): 3.9
- Rate of NO Scavenging, ln ks ([3]; Molar ratio scavenger to NO 91:1): 3.5
- Rate of NO Scavenging, ln ks ([3]; Molar ratio scavenger to NO 129:1): 3.4

Compound: CC1(C)N(O)C(c2ccncc2)N(O)C1(C)C [NN-2, 1,3-Dihydroxy-2-(4-pyridyl)-4,4,5,5,-tetramethylimidazolidine]
- solubility in phosphate buffer [1]: soluble in phosphate buffer
- Rate of NO Scavenging, ln ks ([3]; Molar ratio scavenger to NO 42:1): 3.7
- Rate of NO Scavenging, ln ks ([3]; Molar ratio scavenger to NO 111:1): 3.4

Compound: CC1(C)N(O)C(c2cccs2)N(O)C1(C)C [NN-3, 1,3-Dihydroxy-2-(2-thienyl)-4,4,5,5,-tetramethylimidazolidine]
- solubility in phosphate buffer [1]: soluble in phosphate buffer
- Rate of NO Scavenging, ln ks ([3]; Molar ratio scavenger to NO 71:1): 2.8
- Rate of NO Scavenging, ln ks ([3]; Molar ratio scavenger to NO 126:1): 2.8

Compound: C/C1=C2/[N-][C@H]([C@H](CC(N)=O)[C@@]2(C)CCC(=O)NC[C@@H](C)OP(=O)([O-])OC2C(O)[C@@H](n3cnc4cc(C)c(C)cc43)O[C@@H]2CO)[C@]2(C)N=C(/C(C)=C3N=C(/C=C4N=C1[C@@H](CCC(N)=O)C\4(C)C)[C@@H](CCC(N)=O)[C@]\3(C)CC(N)=O)[C@@H](CCC(N)=O)[C@]2(C)CC(N)=O.CC(=O)[O-].[Co+3] (some centres unmarked) [Vitamin B12a (acetate)]
- Rate of NO Scavenging, ln ks ([3]; Molar ratio scavenger to NO 33:1): 3.7
- Rate of NO Scavenging, ln ks ([3]; Molar ratio scavenger to NO 47:1): 3.4
- Rate of NO Scavenging, ln ks ([3]; Molar ratio scavenger to NO 142:1): 3.7
- Rate of NO Scavenging, ln ks ([3]; Molar ratio scavenger to NO 277:1): 3.1

Compound: C/C1=C2/[N-][C@H]([C@H](CC(N)=O)[C@@]2(C)CCC(=O)NC[C@@H](C)OP(=O)([O-])O[C@H]2[C@@H](O)[C@@H](n3cnc4cc(C)c(C)cc43)O[C@@H]2CO)[C@]2(C)N=C(/C(C)=C3N=C(/C=C4N=C1[C@@H](CCC(N)=O)C\4(C)C)[C@@H](CCC(N)=O)[C@]\3(C)CC(N)=O)[C@@H](CCC(N)=O)[C@]2(C)CC(N)=O.[Co+3].[OH-] [hydroxocobalamin]
- MAP below baseline levels ([4]; 60-180 minutes post-LPS (5 mg/kg i.v.), 6 mL/kg i.v. of 14.5 mM in PBS over one hour from 60 min post-LPS, one rat): 10-20 mmHg
- survival ([4]; LPS 5 mg/kg i.v., 6 mL/kg i.v. of 14.5 mM in PBS over one hour, one rat, both saline rats died): survived the entire experiment
- effect on HR and MAP (in words) ([4]; anesthetized rat with LPS-induced hypotension, summary): increased HR and allowed MAP to be maintained
- HR above baseline levels ([4]; from 60 minutes post-LPS infusion, 6 mL/kg i.v. of 14.5 mM in PBS over one hour, one rat): approximately 140 bpm
